Source: ChEMBL document CHEMBL1201862, “PubChem BioAssay data set” (2004)
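Protocol summary: plate cells (96-well), add compound at 5 concentrations, incubate 48 h, interpolate endpoints linearly. GI50: concentration for 50% inhibition of growth.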 Active and inactive are the calls of the source. Rule as the data show it: active = GI50 up to about 1.1 µM and inactive = higher.

How the values were obtained:
Assay in all cases: NCI tumour cell line growth inhibition, 48 h
786-0 = test system: 786-0
EKVX = test system: EKVX
COLO 205 = test system: COLO 205
MOLT-4 = test system: MOLT-4
SK-MEL-5 = test system: SK-MEL-5
OVCAR-4 = test system: OVCAR-4
KM12 = test system: KM12
HL-60 = test system: HL-60
ACHN = test system: ACHN
OVCAR-5 = test system: OVCAR-5
CAKI-1 = test system: CAKI-1
RPMI-8226 = test system: RPMI-8226
UO-31 = test system: UO-31
LXFL 529 = test system: LXFL 529
HCT-116 = test system: HCT-116
T47D = test system: T47D
PC-3 = test system: PC-3
NCI/ADR-RES = test system: NCI/ADR-RES
MDA-N = test system: MDA-N
SR = test system: SR

Compound | GI50 (786-0) | GI50 (EKVX) | GI50 (COLO 205) | GI50 (MOLT-4) | GI50 (SK-MEL-5) | GI50 (OVCAR-4) | GI50 (KM12) | GI50 (HL-60) | GI50 (ACHN) | GI50 (OVCAR-5) | GI50 (CAKI-1) | GI50 (RPMI-8226) | GI50 (UO-31) | GI50 (LXFL 529) | GI50 (HCT-116) | GI50 (T47D) | GI50 (PC-3) | GI50 (NCI/ADR-RES) | GI50 (MDA-N) | GI50 (SR)
O=C(O)c1cc(=O)c2c([nH]c3ccccc32)s1 | > 100 µM (inactive) | > 100 µM (inactive) | > 100 µM (inactive) | > 100 µM (inactive) | > 100 µM (inactive) | > 100 µM (inactive) | > 100 µM (inactive) | > 100 µM (inactive) | > 100 µM (inactive) | > 100 µM (inactive) | > 100 µM (inactive) | > 100 µM (inactive) | > 100 µM (inactive) | > 100 µM (inactive) | – | – | – | – | – | –
CC(=O)Nc1ccc(Cc2ccc3nc(O)cc(C)c3c2)cc1 | 24.3 µM (inactive) | 65.3 µM (inactive) | 57.4 µM (inactive) | > 100 µM (inactive) | > 100 µM (inactive) | > 100 µM (inactive) | > 100 µM (inactive) | > 100 µM (inactive) | 50.8 µM (inactive) | > 100 µM (inactive) | 63.5 µM (inactive) | 17.2 µM (inactive) | > 100 µM (inactive) | – | 83.8 µM (inactive) | 55.3 µM (inactive) | 50.5 µM (inactive) | > 100 µM (inactive) | > 100 µM (inactive) | > 100 µM (inactive)
CC1=C[C@H]2C[C@@]3(C)O[C@@H]([C@]4(C)CC[C@H]([C@@H](C)C(=O)O)OO4)CC3C(C)(C)[C@H]2CC1 (some centres undefined) | 3.15 µM (inactive) | 1.87 µM (inactive) | 1.44 µM (inactive) | – | – | 1.5 µM (inactive) | 0.397 µM (active) | 0.114 µM (active) | 1.57 µM (inactive) | 3.16 µM (inactive) | 1.49 µM (inactive) | – | 1.2 µM (inactive) | 0.612 µM (active) | 2.16 µM (inactive) | – | – | – | – | –
CC(=O)NNc1nc(-c2ccc([N+](=O)[O-])cc2)c(C#N)c(=O)n1C | 22.1 µM (inactive) | 38 µM (inactive) | 44.6 µM (inactive) | 36.8 µM (inactive) | > 100 µM (inactive) | 20.1 µM (inactive) | 54.1 µM (inactive) | 25.9 µM (inactive) | > 100 µM (inactive) | 27.5 µM (inactive) | 79.8 µM (inactive) | 21.1 µM (inactive) | 37.6 µM (inactive) | – | 34.5 µM (inactive) | > 100 µM (inactive) | 37.7 µM (inactive) | > 100 µM (inactive) | 86.7 µM (inactive) | 13.9 µM (inactive)
COC(=O)C1=C(C)NC(C)=C(C(=O)OC)C1c1ccc(N=O)cc1 | 14.6 µM (inactive) | 17 µM (inactive) | 8.77 µM (inactive) | 3.33 µM (inactive) | 16.6 µM (inactive) | 3.14 µM (inactive) | 18.5 µM (inactive) | 1.3 µM (inactive) | 13.8 µM (inactive) | 17.5 µM (inactive) | 8.3 µM (inactive) | 1.58 µM (inactive) | 13.2 µM (inactive) | – | 6.12 µM (inactive) | 6.62 µM (inactive) | 15.8 µM (inactive) | 20.8 µM (inactive) | 6.75 µM (inactive) | 0.776 µM (active)
CC(=O)C1C(=O)NC(=O)C1=O (centres undefined) | > 100 µM (inactive) | > 100 µM (inactive) | > 100 µM (inactive) | – | > 100 µM (inactive) | > 100 µM (inactive) | > 100 µM (inactive) | – | > 100 µM (inactive) | > 100 µM (inactive) | > 100 µM (inactive) | > 100 µM (inactive) | > 100 µM (inactive) | > 100 µM (inactive) | > 100 µM (inactive) | – | – | – | – | –
Nc1nc(Sc2ccc([N+](=O)[O-])c3nonc23)c2nc[nH]c2n1 | 0.489 µM (active) | 1.85 µM (inactive) | 1.61 µM (inactive) | 0.301 µM (active) | 2.15 µM (inactive) | 1.14 µM (inactive) | 3.21 µM (inactive) | 1.71 µM (inactive) | 2.22 µM (inactive) | 1.02 µM (active) | 0.36 µM (active) | 0.31 µM (active) | 0.716 µM (active) | – | 0.622 µM (active) | 1.2 µM (inactive) | 3.34 µM (inactive) | 0.495 µM (active) | 0.91 µM (active) | 0.0822 µM (active)
O=C(O)C1CCCN1C(=O)c1cc(Cl)ccn1 (centres undefined) | > 100 µM (inactive) | > 100 µM (inactive) | > 100 µM (inactive) | > 100 µM (inactive) | > 100 µM (inactive) | > 100 µM (inactive) | > 100 µM (inactive) | > 100 µM (inactive) | > 100 µM (inactive) | > 100 µM (inactive) | > 100 µM (inactive) | > 100 µM (inactive) | > 100 µM (inactive) | – | > 100 µM (inactive) | > 100 µM (inactive) | > 100 µM (inactive) | > 100 µM (inactive) | > 100 µM (inactive) | > 100 µM (inactive)
